Patent US20240166629A1, “HETEROCYCLIC COMPOUNDS CAPABLE OF ACTIVATING STING” (Boehringer Ingelheim International GmbH, priority 2022, published 2024)

What was measured:
[1] = system: Human STING (hSTING, UNIPROT entry Q86WV6, residues 155-341); assay: Interaction with hSTING by differential scanning fluorimetry (DSF); format: binding; settings: 100 μM test compound, 5 μM hSTING protein
Procedure: In DSF, the temperature at which a protein unfolds, also called the melting temperature Tm, is measured by changes in fluorescence of a dye that binds to the hydrophobic parts of the protein. Tm shifts upon binding of a small molecule are correlated with the binding affinity of this small molecule. As target protein, Human STING (hSTING, UNIPROT entry Q86WV6, residues 155-341, MW: 21578.4 Da; protein stock solution: c=1302 μM stock solution in 20 mM Tris, 100 mM NaCl, 2 mM TCEP pH 8.8) was used, as assay buffer 20 mM Tris, 150 mM NaCl pH7.5 was added where and as necessary.
Final concentrations of components in assay: 100 μM test compounds, 5 μM target protein, “5×” SYPR Orange (from stock solution SYPRO orange solution in DMSO (invitrogen cat.-no. 56650-500ul), concentration “5000×”)
Assay Procedure: • 1) Dilutions of compound stock solutions (10 mM in DMSO) were prepared in assay buffer (20 mM Tris, 150 mM NaCl; pH7.5) • 2) 5 μl fluorescent dye stock solution (5000×SYPRO Orange in DMSO) was mixed with 19 μl target protein (1302 μM) and 976 μl assay buffer. • 3) 2 μl of this protein-dye-mixture (25×SYPRO Orange and 25 μM Protein) was added to 8 μl diluted compound solution as prepared in step 1. Final volume was 10 μl. • 4) With every 20 compounds, two negative controls were measured. • 5) The plates were prepared for duplicate measurement and centrifuged for 2 min at 1000 g. • 6) For the measurement, a CFX384 Real-Time System (Bio-Rad) was used. The run consisted of 140 cycles with 0.5° C./cycle (temperature ramp 15 s/cycle, 25° C. to 95° C.).
Data analysis: The melting curves were processed in Bio-Rad CFX Manager. Peak type was set to “negative”. Two replicates of TM (melting temperature) measurements were averaged and the standard deviation was calculated.

human STING variant AQ = molecular target: T1, human STING variant AQ (Homo sapiens, UniProt Q86WV6, G230A/H232R/R293Q); assay: THP1-Blue ISG IRF-inducible SEAP reporter assay, STING AQ-variant; format: cell-based; settings: THP1-Blue ISG hSTING KO cells expressing STING AQ; 24 hours incubation
T1 construct: expressed in transfected cells; host or cells: THP1-Blue ISG hSTING KO clone, retroviral MSCV-ires-GFP-Blasti
Excerpt: (§1) Activation of the STING protein expressed in cell lines results in an increase of interferon production. By the stable integration of an interferon regulatory factor (IRF)-inducible SEAP gene (secreted embryonic alkaline phosphatase) reporter construct the functional interferon signaling pathway can be monitored. Using Invivogen's THP1-Blue™ ISG colorimetric enzyme assay and a suitable optical density (OD) reader the activity of SEAP can be detected and quantified. This technique could be used to characterize pharmacological modification of the STING pathway.
(§2) Several single nucleotide polymorphisms have been identified in the human STING gene. To determine the activity of the above described compounds, THP1-Blue™ ISG reporter cell lines expressing the different human STING variants have been generated. To do so, the endogenous human STING was first deleted using the CRISPR/CAS9 system: THP1-Blue ISG cells were electroporated with ALL-IN-ONE CRISPR plasmids targeting the STING gene (purchased from Sigma encoding the gRNA and GFP as a reporter gene for successful transduction). GFP positive cells then were sorted 24 h post transfection and expanded. Cells were then dispersed in semisolid methocel medium to allow single cell clone isolations. Clones were then screened for cGAMP responsiveness using the Quanti-Blue™ reporter assay. Non-responsive clones were subsequently analysed for STING loss by western blotting and sequencing of the STING locus.
(§3) For the overexpression of the human STING variants, a confirmed THP1-Blue™ ISG hSTING KO clone was transduced with individual retroviral plasmids (MSCV-ires-GFP-Blasti) encoding the allelic variants of hSTING (WT (H232R), HAQ, R232H, AQ and R293Q). Transduced cells were sorted for different levels of GFP fluorescence and STING allele expression was analysed by western blot.
(§4) Measurements of SEAP activity were performed in THP1-Blue™ ISG cells stably expressing the different human STING isoforms and the IRF-inducible SEAP reporter construct. Cells were cultivated in RPMI1640 medium with 10% fetal calf serum, 50 μg/ml Penicillin-Streptomycin, 100 μg/ml Zeocin, and 100 μg/ml Normocin in a 37°, 95% humidity and 5% CO2 incubator.
(§5) In preparation for the assay, the cells were distributed into the assay plates with a density of 10000 cells/15 μL per well. Compounds were prepared by an 8 point serial dilution in 50% aqueous DMSO and a final dilution step into medium to ensure a final DMSO concentration of 0.5% in the assay. 5 μL of diluted compounds were added to the plates, followed by a 24 hours incubation at 37° C.
(§6) At the day of the assay, 75 μl per well of Quanti-Blue™ reagent was added to all wells of the plate and the plate was incubated another 30 minutes at 37° C. The OD at 620 nm was measured on the EnVision reader (PerkinElmer).

[2] = molecular target: T2, human STING variant R232H (Homo sapiens, UniProt Q86WV6); assay: THP1-Blue ISG IRF-inducible SEAP reporter assay, STING R232H-variant; format: cell-based; settings: THP1-Blue ISG hSTING KO cells expressing STING R232H; 24 hours incubation
T2 construct: expressed in transfected cells; host or cells: THP1-Blue ISG hSTING KO clone, retroviral MSCV-ires-GFP-Blasti
Excerpt: as §1, §2, §3, §4, §5, §6

[3] = molecular target: T3, human STING variant H232R (WT) (Homo sapiens, UniProt Q86WV6, H232R); assay: THP1-Blue ISG IRF-inducible SEAP reporter assay, STING H232R-variant; format: cell-based; settings: THP1-Blue ISG hSTING KO cells expressing STING H232R; 24 hours incubation
T3 construct: expressed in transfected cells; host or cells: THP1-Blue ISG hSTING KO clone, retroviral MSCV-ires-GFP-Blasti
Excerpt: as §1, §2, §3, §4, §5, §6

human STING variant HAQ = molecular target: T4, human STING variant HAQ (Homo sapiens, UniProt Q86WV6, G230A/H232R/R293Q/R71H); assay: THP1-Blue ISG IRF-inducible SEAP reporter assay, STING HAQ-variant; format: cell-based; settings: THP1-Blue ISG cells expressing STING HAQ (parental or re-introduced); 24 hours incubation; SEAP OD 620 nm
T4 construct: expressed in transfected cells; host or cells: THP1-Blue ISG: either parental cells (endogenous HAQ) or hSTING KO clone retrovirally transduced with HAQ
Excerpt: as §1, §2, §3, §4, §5, §6
Data of EC50 values on STING HAQ-variant can be found in table 2a. Shown data below were either derived from the parental THP1-Blue™ ISG cell lines (which express endogenously HAQ) or from genetically engineered THP1-Blue™ ISG cell lines in which first STING has been knocked-out and the HAQ specific STING isoform has been re-introduced as described above.

[4] = molecular target: T5, human STING variant R293Q (Homo sapiens, UniProt Q86WV6, H232R/R293Q); assay: THP1-Blue ISG IRF-inducible SEAP reporter assay, STING R293Q-variant; format: cell-based; settings: THP1-Blue ISG hSTING KO cells expressing STING R293Q; 24 hours incubation
T5 construct: expressed in transfected cells; host or cells: THP1-Blue ISG hSTING KO clone, retroviral MSCV-ires-GFP-Blasti
Excerpt: as §1, §2, §3, §4, §5, §6

in vitro = settings: human, Caco-2, pH 7.4
Procedure: Caco-2 cells were obtained from Leibniz Institute DSMZ-German Collection of Microorganisms and Cell Cultures (Braunschweig, Germany) and cultured in DMEM (Dulbecco's modified Eagle medium) containing (in final concentrations) 10% FCS (fetal calf serum), 1% NEAA (non-essential amino acids), 2 mM Glutamin, 100 U/mL Penicillin and 100 μg/mL Streptomycin. Caco-2 cells were seeded either onto 24-well Transwell inserts (Corning, #3379) for bidirectional permeability assays at a density of 160,000 cells/cm^2 and cultured for 3 weeks, with media change on every second day.
For bidirectional permeability assays 10 mM DMSO stock solutions were diluted in transport buffer (final concentrations: 128.13 mM NaCl, 5.36 mM KCl, 1 mM MgSO4, 1.8 mM CaCl2, 4.17 mM NaHCO3, 1.19 mM Na2HPO4, 0.41 mM NaH2PO4, 15 mM 2-[4-(2-hydroxyethyl)piperazin-1-yl]ethanesulfonic acid (HEPES), 20 mM glucose, pH 7.4) containing 0.25% bovine serum albumin to a final concentration of 10 μM of the test compounds and added to the apical or basal compartment. Cells were incubated with the compounds for up to 2 h. Samples from the opposite compartment were taken at different timepoints.
Compound concentrations in the compartments were quantified using a RapidFire-based high-throughput HPLC/MS/MS system (high performance liquid chromatography/mass spectrometry; BioCius) that was customized to a fully automated and flexible platform, termed RIAS. In this modified setup, the sample was aspirated by a vacuum pump into a 10 μL sample loop for 250 ms and flushed onto a C4 cartridge (3.8 μL bed volume; BioCius) with the aqueous mobile phase (99.9% water, 0.09% formic acid, and 0.01% TFA; flow rate 1.5 mL/min). Prior to bioanalysis samples were spiked with internal standard solution and diluted with acetonitrile (ACN) for protein precipitation. Measurement was operated in multiplereaction monitoring (MRM) mode. Quantification was performed using external calibration. A solid-phase extraction step retained the analyte for 3000 ms while interfering matrix (e.g., buffer components) was removed. With a simple step gradient, the analyte was back-eluted from the cartridge for 3,000 ms with the organic mobile phase (99.9% acetonitrile/methanol [1:1, v:v], 0.09% formic acid, and 0.01% TFA) and flushed into the mass spectrometer at a flow rate of 1.25 mL/min. Afterwards, the cartridge was reequilibrated with the aqueous mobile phase for 500 ms (flow rate 1.5 mL/min). The RapidFire software and a customized control software were obtained from BioCius. QuickQuan 2.3, Xcalibur 2.0.7, and XDK 2.1.0.25 were used to operate the TSQ Vantage mass spectrometer (ThermoFisher, San Jose, CA) integrated to the RapidFire system. Mass spectral data-processing software QuickCalc 7.1.9 was purchased from ThermoFisher. The Master software for the RIAS was programmed in-house using LabVIEW (version 8.6.1; National Instruments, Austin, TX). Data analysis was performed in AssayExplorer 3.2 (Symyx, Sunnyvale, CA), and correlation plots were visualized in Spotfire version 2.2.0 (TIBCO, Palo Alto, CA).
Apparent permeability coefficients in the apical to basal direction (Papp,AB) and in the basal to apical direction (Papp,BA) and efflux ratios were calculated as follows:
Efflux ratio=Papp,BA/Papp,AB
where Q is the amount of compound recovered in the receiver compartment after the incubation time t, C0 the initial compound concentration given to the donor compartment, and s the surface area of the Transwell inserts. […] In addition, transepithelial electrical resistance (TEER) values are measured for each plate before the permeability assay, and total recovery in donor and receiver compartments was determined for each compound.

T4 sequence (Q86WV6 whole entry R71H/G230A/H232R/R293Q): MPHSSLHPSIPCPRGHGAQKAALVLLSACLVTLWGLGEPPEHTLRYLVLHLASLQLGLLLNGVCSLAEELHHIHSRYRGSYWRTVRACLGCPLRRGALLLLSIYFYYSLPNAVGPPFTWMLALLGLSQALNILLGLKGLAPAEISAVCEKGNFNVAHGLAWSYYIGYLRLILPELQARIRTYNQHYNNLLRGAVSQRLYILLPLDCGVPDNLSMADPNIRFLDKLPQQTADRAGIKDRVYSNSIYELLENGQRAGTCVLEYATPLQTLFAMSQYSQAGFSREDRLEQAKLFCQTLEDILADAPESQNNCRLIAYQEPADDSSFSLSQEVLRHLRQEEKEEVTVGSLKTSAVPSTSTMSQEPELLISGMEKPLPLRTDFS
T1 sequence (Q86WV6 whole entry G230A/H232R/R293Q): as the sequence (Q86WV6 whole entry R71H/G230A/H232R/R293Q) above, with H71R counted along it
T5 sequence (Q86WV6 whole entry H232R/R293Q): as the sequence (Q86WV6 whole entry R71H/G230A/H232R/R293Q) above, with H71R, A230G counted along it
T3 sequence (Q86WV6 whole entry H232R): as the sequence (Q86WV6 whole entry R71H/G230A/H232R/R293Q) above, with H71R, A230G, Q293R counted along it
T2 sequence (Q86WV6 whole entry, stated change not applied): as the sequence (Q86WV6 whole entry R71H/G230A/H232R/R293Q) above, with H71R, A230G, R232H, Q293R counted along it

Cc1c(Cl)ccc2c(-c3cccc4nn(C)cc34)nn(-c3ccc(N4C[C@@H]5[C@H](C4)[C@H]5C(=O)O)nc3)c12 [compound 8, (1R,5S,6r)-3-(5-(6-chloro-2′,7-dimethyl-1H,2′H-[3,4′-biindazol]-1-yl)pyridin-2-yl)-3-azabicyclo[3.1.0]hexane-6-carboxylic acid]
TM (changes in TM, thermal shift) [1]: 22 K | EC50 (human STING variant AQ): 100 nM | EC50 [2]: 100 nM | EC50 [3]: 100 nM | EC50 (human STING variant HAQ): 100 nM | EC50 [4]: 100 nM | Papp A→B at 10 μM (in vitro): 11 ×10⁻⁶ cm/s | efflux ratio at 10 μM (in vitro): 1.4
